Reference: US7091185B2, “Periodic antimicrobial peptides” (Dow Global Technologies Inc., priority 2003, dated 2006)
Where no end group is shown, it is not given here.

Key:
HeLa cell line = assay: HeLa MTS cellular reduction toxicity assay; format: cell-based; conditions: for TX50: 24 h, MTS
Experimental: The RBC protocol was from Blondelle (2000) and is described generally as follows: The toxicity toward the HeLa cell line was determined using a MTS (3-(4-5-dimethylthiazol-2-yl)-5-(3carboxymethoxyphenyl)-2-(4-sulfophenyl)-2H-tetrazolium, sodium salt) cellular reduction assay. MTS (2 mg/mL) was prepared in Dulbecco PBS (pH 7.35), filtered, aliquoted and stored at minus 20° C. In 96 well flat bottomed plates, cell suspensions (250 μL of 6×10^4 cell/mL in each well) were incubated for 48 h at 37° C. (5% CO2 incubator). The peptides (50 μL) were then added to the cell monolayer (following aspiration of the media from each well and addition of 50 μL of Dulbecco's Modified Eagles Medium) at varying concentrations derived from serial 2-fold dilutions, and the plates incubated for 24 h at 37° C. (5% CO2 incubator). Proliferation was then determined by adding a solution of phenazine methosulfate (PMS: 0.92 mg/mL in DPBS) to MTS at a 1:20 ration just prior to the assay. Twenty microliters MTS-PMS solution were added to each well and the plates incubated for 1 h at 37° C. (5% CO2 incubator). The relative percent toxicity was determined by comparing the absorbance at 490 nm of each peptide to the absorbance of cells without peptide. The TX50 (concentration required for 50% toxicity) was calculated using a sigmoidal curve fitting software (Graphpad Prism).

[1] = tested on: S. aureus (methicillin resistant) ATCC 33591; conditions: ATCC 33591
Experimental: (§1) The bacteria tested were P. aeruginosa American Type Culture Collection Number (ATCC) 10145, E. coli ATCC 2592, and S. aureus (methicillin reseistant) ATTC 33591.
(§2) All experiments were compared to bacterial growth under optimal growth conditions (37° C., pH 7.0, absence of additional salt, growth media—referred to as standard growth conditions). In each plate, no growth control (media alone), positive growth control (bacteria with no test sample), positive antimicrobial controls (agents with known antimicrobial activity) and test compounds were tested.
(§3) The plates were incubated overnight, and the relative percent growth determined by optical density at 620 nm (OD620) using a […] […] PLUS™. […] All samples were tested in duplicate and each assay was repeated at least twice. […] IC50 and MIC are reported in μg/ml.

P. aeruginosa ATCC 10145 = conditions: ATCC 10145
Experimental: as §1, §2, §3

E. coli ATCC 2592 = conditions: ATCC 2592
Experimental: as §1, §2, §3

Red blood cell toxicity = format: cell-based; conditions: red blood cells (RBC); RBCs; concentration required for 50% toxicity; read-out: TX50
Red blood cells (RBC) = assay: Red blood cell toxicity; format: cell-based
P. aeruginosa ATCC 15442 = assay: HMARQ biocidal kill activity; format: cell-based; conditions: P. aeruginosa ATCC 15442 (gram−)
Experimental: (§4) Biocide efficacy protocols were improved by reducing sample size, organizing the test material into an array format, implementing most probable number (MPN) quantitation and using multi-channel liquid handling equipment. We call the new method “high-throughput microanalysis and rapid quantitation” or “HMARQ.” HMARQ is directly applicable to current industrial efficacy tests such as multi-cycle preservation challenge or time course disinfection tests.
(§5) HMARQ is performed in a high throughput plate, such as 96-well microtiter plates. Typical sample volumes have been reduced down to 200 to 300 μL, but can be reduced further if desired. In these samples, no more than 10% of the total volume will be composed of the biocide and organism solution, and all non-matrix additions are normalized for all samples.
(§6) The sample matrix is first inoculated with the desired concentration of microorganisms. Inoculated sample matrix is then added to the 96-well assay block containing the biocide(s) under study. Each sample block contains biocide treated samples and untreated control samples (lacking biocide). Once the samples are prepared, the entire block of samples is mixed by vortexing until each sample is homogenous. In general, the study starts once mixing is complete, and samples are removed as required for the analysis. When Kill Time testing (rate of biocide activity) is performed, the microorganisms are added after biocide addition to the samples, allowing for rapid mixing and analysis.
(§7) Bacterial concentration (CFU/mL) is determined using the most probable number method (MPN). The contaminated solution is serially diluted until the “no growth” endpoint is reached. The endpoint represents the MPN and is expressed in units of the bacterial concentration. A serial 1:10 dilution will yield a bacterial concentration resolution of 1 log and the log reduction is determined by comparing the concentration of organisms in a treated sample to the concentration of organisms in untreated samples. For example, if a sample requires four 1:10 dilutions before bacterial growth is lost then the MPN for bacterial concentration in the sample is less than or equal to 1×10^4 CFU/mL (1E4). […] This method of enumeration is generally applicable to all non-filamentous microorganisms.
(§8) Media included Tryptic Soy Broth (TSB) for bacteria and Sabouraud Dextrose Broth (SDB) for fungi. These are available commercially and prepared according to the manufacturers instructions. Indicator medium was TSB/R for bacteria and SDB/R for fungi. These were made by addition of 50 μM filter sterilized Resazurin to the sterilized and cooled medium. Tryptic Soy agar plates (TSA) and SDA slants were used to provide inoculant for bacterial and fungal cultures. The indicator dye appeared pink or white when bacterial growth was present.
(§9) Using the HMARQ test described above, periodic peptides were generated and tested for Kill Activity. In this experiment, a broader range of peptidezs were tested for activity. Units are expressed as ppm (μg/mL) needed for 3.5 log kill at 15 min or 24 hour and the results are shown below.

Staph. aureus ATCC 6538 = assay: HMARQ biocidal kill activity; format: cell-based; conditions: Staph. aureus ATCC 6538 (gram+)
Experimental: as §4, §5, §6, §7, §8, §9

C. albicans 10231 = format: cell-based; conditions: 10231
Experimental: (§10) The MIC and IC50 values were determined by a broth microdilution method according to guidelines of the National Committee for Clinical Laboratory Standard as follows: In 96-well tissue culture plates, a fixed volume of bacterial suspension in 2× broth (as defined below) was added to the mixtures or individual compounds dispensed at concentrations varying from 1,000 to 1 μg/ml derived from serial two-fold dilutions in sterile water. The bacteria tested were P. aeruginosa American Type Culture Collection Number (ATCC) 10145, E. coli ATCC 2592, and S. aureus (methicillin reseistant) ATTC 33591.
(§11) The plates were incubated overnight, and the relative percent growth determined by optical density at 620 nm (OD620) using a TITERTEK MULTISKAN PLUS™. […] IC50 values were calculated using a sigmoidal curve fitting software program (GRAPHPAD,™ ISI Software,™ San Diego, Calif.). All samples were tested in duplicate and each assay was repeated at least twice. In the following table, KFAK is the repeat unit and multimers of KFAK were tested. IC50 and MIC are reported in μg/ml.
(§12) Because the antibacterial activity of the periodic peptides was so promising, further experiments were performed to determine if the periodic peptides also had antifungal activity. The experimental design was similar to that above, with accommodation made for fungal growth requirements, including the use of Sabouraud Dextrose Broth (SDB) and Sabouraud Dextrose Agar (SDA) slants.

Cr. Neoformans 32045 = format: cell-based
Experimental: as §10, §11, §12

Substance: H-LKLKLKLKLKLKLKLKLKLKLK-OH [LK (11), LK LK LK LK LK LK LK LK LK LK LK]
- % kill at 500 μg/ml (HeLa cell line): 43.8%
- TX50 (HeLa cell line): 202 µg/mL
- IC50 [1]: 111 µg/mL
- MIC [1]: >250 µg/mL
- IC50 (P. aeruginosa ATCC 10145): 51 µg/mL
- MIC (P. aeruginosa ATCC 10145): 62 µg/mL
- IC50 (E. coli ATCC 2592): 50 µg/mL
- MIC (E. coli ATCC 2592): >125 µg/mL
- HC50 at 24 h (Red blood cell toxicity): > 500 µg/mL
- % kill at 250 μg/ml (Red blood cells (RBC)): 24%
- ppm needed for 3.5 log kill at 15 min (P. aeruginosa ATCC 15442): 16 ppm
- ppm needed for 3.5 log kill at 24 hr (P. aeruginosa ATCC 15442): 8 ppm
- ppm needed for 3.5 log kill at 15 min (Staph. aureus ATCC 6538): 16 or less ppm
- ppm needed for 3.5 log kill at 24 hr (Staph. aureus ATCC 6538): 4 ppm
- IC50 (C. albicans 10231): 185 µg/mL
- MIC (C. albicans 10231): 250 to 500 µg/mL
- IC50 (Cr. Neoformans 32045): 26 µg/mL
- MIC (Cr. Neoformans 32045): 32 to 62 µg/mL

Substance: KFKKFKKFKKFKKFKKFKKFK [KFK (7), KFK KFK KFK KFK KFK KFK KFK]
- % kill at 500 μg/ml (HeLa cell line): 80.9%
- TX50 (HeLa cell line): >500 µg/mL
- IC50 [1]: 141 µg/mL
- MIC [1]: >500 µg/mL
- IC50 (P. aeruginosa ATCC 10145): 87 µg/mL
- MIC (P. aeruginosa ATCC 10145): 125 µg/mL
- IC50 (E. coli ATCC 2592): 18 µg/mL
- MIC (E. coli ATCC 2592): 31 to 62 µg/mL
- HC50 at 24 h (Red blood cell toxicity): > 500 µg/mL
- % kill at 250 μg/ml (Red blood cells (RBC)): −7%
- ppm needed for 3.5 log kill at 15 min (P. aeruginosa ATCC 15442): >500 ppm
- ppm needed for 3.5 log kill at 24 hr (P. aeruginosa ATCC 15442): 125 ppm
- ppm needed for 3.5 log kill at 15 min (Staph. aureus ATCC 6538): >500 ppm
- IC50 (C. albicans 10231): 175 µg/mL
- MIC (C. albicans 10231): 250 to 500 µg/mL
- IC50 (Cr. Neoformans 32045): 26 µg/mL
- MIC (Cr. Neoformans 32045): 40 to 62 µg/mL

Substance: LKLKLKLKLKLKLKLKLK [LK (9), LK LK LK LK LK LK LK LK LK]
- % kill at 500 μg/ml (HeLa cell line): 46.0%
- TX50 (HeLa cell line): 137 µg/mL
- IC50 [1]: 50 µg/mL
- MIC [1]: 250 to 500 µg/mL
- IC50 (P. aeruginosa ATCC 10145): 74 µg/mL
- MIC (P. aeruginosa ATCC 10145): 80 µg/mL
- IC50 (E. coli ATCC 2592): 35 µg/mL
- MIC (E. coli ATCC 2592): 62 to 125 µg/mL
- HC50 at 24 h (Red blood cell toxicity): > 500 µg/mL
- % kill at 250 μg/ml (Red blood cells (RBC)): 21%
- ppm needed for 3.5 log kill at 15 min (P. aeruginosa ATCC 15442): 8 ppm
- ppm needed for 3.5 log kill at 24 hr (P. aeruginosa ATCC 15442): 8 ppm
- ppm needed for 3.5 log kill at 15 min (Staph. aureus ATCC 6538): 16 ppm
- ppm needed for 3.5 log kill at 24 hr (Staph. aureus ATCC 6538): 4 ppm
- IC50 (C. albicans 10231): 216 µg/mL
- MIC (C. albicans 10231): 250 to 500 µg/mL
- IC50 (Cr. Neoformans 32045): 4.9 µg/mL
- MIC (Cr. Neoformans 32045): 32 to 62 µg/mL

Substance: H-KFKKFKKFKKFKKFKKFKKFKKFK-OH [KFK (8), KEK KFK KFK KFK KFK KFK KFK KFK]
- % kill at 500 μg/ml (HeLa cell line): 84.2%
- TX50 (HeLa cell line): >500 µg/mL
- IC50 [1]: 72 µg/mL
- MIC [1]: >250 µg/mL
- IC50 (P. aeruginosa ATCC 10145): 145 µg/mL
- MIC (P. aeruginosa ATCC 10145): 250 µg/mL
- IC50 (E. coli ATCC 2592): 20 µg/mL
- MIC (E. coli ATCC 2592): 32 to 62 µg/mL
- HC50 at 24 h (Red blood cell toxicity): > 500 µg/mL
- % kill at 250 μg/ml (Red blood cells (RBC)): −6%
- ppm needed for 3.5 log kill at 15 min (P. aeruginosa ATCC 15442): >500 ppm
- ppm needed for 3.5 log kill at 24 hr (P. aeruginosa ATCC 15442): >125 ppm
- ppm needed for 3.5 log kill at 15 min (Staph. aureus ATCC 6538): >500 ppm
- ppm needed for 3.5 log kill at 24 hr (Staph. aureus ATCC 6538): 500 ppm
- IC50 (C. albicans 10231): 113 µg/mL
- MIC (C. albicans 10231): 125 to 250 µg/mL
- IC50 (Cr. Neoformans 32045): 25 µg/mL
- MIC (Cr. Neoformans 32045): 40 to 62 µg/mL

Substance: H-RFARRFARRFARRFARRFARRFAR-OH [RFAR (6), RFAR RFAR RFAR RFAR RFAR RFAR]
- % kill at 500 μg/ml (HeLa cell line): 22.1%
- TX50 (HeLa cell line): 159 µg/mL
- IC50 [1]: 15 µg/mL
- MIC [1]: 31 to 62 µg/mL
- IC50 (P. aeruginosa ATCC 10145): 25 µg/mL
- MIC (P. aeruginosa ATCC 10145): 32 µg/mL
- IC50 (E. coli ATCC 2592): 12 µg/mL
- MIC (E. coli ATCC 2592): 31 to 62 µg/mL
- HC50 at 24 h (Red blood cell toxicity): 176 µg/mL
- % kill at 250 μg/ml (Red blood cells (RBC)): 72%
- ppm needed for 3.5 log kill at 15 min (P. aeruginosa ATCC 15442): 31 ppm
- ppm needed for 3.5 log kill at 24 hr (P. aeruginosa ATCC 15442): 31 ppm
- ppm needed for 3.5 log kill at 15 min (Staph. aureus ATCC 6538): >500 ppm
- ppm needed for 3.5 log kill at 24 hr (Staph. aureus ATCC 6538): 8 ppm
- IC50 (C. albicans 10231): 114 µg/mL
- MIC (C. albicans 10231): 125 to 250 µg/mL
- IC50 (Cr. Neoformans 32045): 35 µg/mL
- MIC (Cr. Neoformans 32045): 62 to 125 µg/mL
